For this assay, the target named is α5β3γ2 GABAA R (Homo sapiens, UniProt P18507+P31644). Description: Binding activity on GABAA R: inhibition of [3H]Ro15-1788 binding, α5 containing receptor. On the procedure:
Tissue culture and Membrane Preparation: The binding was performed on Ltk cells stably expressing GABAA R: […], α2β3γ2, α3β3γ2 and α5β3γ2 (provided by Merck Co., NJ, USA). Cells were seeded in 100 mm culture plates in DMEM/F12 medium containing 10% serum and antibiotics in 5% CO2 and allowed to grow for 1-2 days. GABAAR expression was then induced by dexamethasone as follows: 0.5 μM for 1 day for α5 containing and 2 μM for 3 days for α1, α2 and α3 containing GABAARs. After induction, cells were collected by scraping into Dulbecco's Phosphate buffered saline (DPBS, pH 7.4, Invitrogen, Carlsbad, CA, USA) and centrifuged at 150×g for 10 min. The pellet was washed twice by re-suspension and centrifugation. The cell pellets from at least 5 different preps were combined, suspended in the binding assay buffer (50 mM KH2PO4; 1 mM EDTA; 0.2 M KCl, pH 7.4) and membranes prepared by sonication (3-5 times, 30 sec) using Branson Sonifier 150 (G. Heinmann, Germany). Protein content was determined using BCA assay (Bio-Rad Labs, Reinach, Switzerland) with Bovine Serum Albumin (Sigma Aldrich, St. Louis, MO, USA) as the standard. Aliquots were prepared and stored at −20° C. for further use in binding assays.
Ligand Binding: Saturation binding curves were obtained by incubating membranes with increasing concentrations (0.01-8 nM) of [^3H]Rol5-1788 (Flumazepil, 75-85 Ci/mmol, PerkinElmer, MA, USA), with nonspecific binding measured in the presence of 10 μM diazepam.
All binding assays were performed for 1 h at 4° C. in assay buffer. The total assay volume was 0.5 ml containing 0.2 mg/ml protein for α5 and 0.4 mg/ml for α1, α2, and α3 containing GABAAR membranes. Incubations were terminated by filtration through GF/B filters using a 24-Cell Harvestor (Brandel, Gaithersburg, MD, USA) followed by 3 washes with ice-cold assay buffer. Filters were transferred to scintillation vials, 5 ml scintillation liquid added, vortex-mixed and kept in dark. Next day, radioactivity was obtained using a scintillation counter (Beckman Coulter, Brea, CA, USA). All assays were performed in triplicate.
Data Analyses: Saturation and inhibition curves were obtained using GraphPad Prism software (GraphPad Software, Inc., CA, USA).

[1] abbreviates: ranges of the column heads, [3H]Ro15-1788, Ltk cell membranes.

The structures appear in SMILES notation. Like-named read-outs stand apart in the source and are kept apart here. Bounds are passed on as bounds.

Chain of α5β3γ2 GABAA R (P31644 32-462): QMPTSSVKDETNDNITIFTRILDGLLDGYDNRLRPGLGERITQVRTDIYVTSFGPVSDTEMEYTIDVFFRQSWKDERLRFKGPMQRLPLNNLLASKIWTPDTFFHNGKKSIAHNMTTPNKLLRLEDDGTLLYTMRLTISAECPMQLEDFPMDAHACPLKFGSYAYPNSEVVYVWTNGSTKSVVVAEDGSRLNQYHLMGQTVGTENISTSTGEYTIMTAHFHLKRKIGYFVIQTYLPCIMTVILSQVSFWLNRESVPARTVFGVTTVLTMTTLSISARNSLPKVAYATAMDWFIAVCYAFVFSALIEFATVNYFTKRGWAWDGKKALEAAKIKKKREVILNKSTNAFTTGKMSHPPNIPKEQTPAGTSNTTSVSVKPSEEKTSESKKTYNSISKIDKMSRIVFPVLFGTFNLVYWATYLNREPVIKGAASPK
Chain of α5β3γ2 GABAA R (P28472 26-473 partner): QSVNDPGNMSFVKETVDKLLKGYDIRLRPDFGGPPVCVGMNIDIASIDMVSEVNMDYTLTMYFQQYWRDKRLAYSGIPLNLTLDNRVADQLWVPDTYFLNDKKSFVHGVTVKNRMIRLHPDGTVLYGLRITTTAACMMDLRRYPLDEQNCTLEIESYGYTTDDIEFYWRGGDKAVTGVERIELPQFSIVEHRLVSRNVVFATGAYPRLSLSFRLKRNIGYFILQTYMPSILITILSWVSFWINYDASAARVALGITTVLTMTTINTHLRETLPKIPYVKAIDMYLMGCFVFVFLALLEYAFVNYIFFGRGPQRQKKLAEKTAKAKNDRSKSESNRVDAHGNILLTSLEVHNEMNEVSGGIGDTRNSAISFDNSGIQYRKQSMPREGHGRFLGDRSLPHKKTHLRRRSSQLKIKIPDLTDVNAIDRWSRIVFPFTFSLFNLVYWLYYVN
Chain of α5β3γ2 GABAA R (P18507 40-475): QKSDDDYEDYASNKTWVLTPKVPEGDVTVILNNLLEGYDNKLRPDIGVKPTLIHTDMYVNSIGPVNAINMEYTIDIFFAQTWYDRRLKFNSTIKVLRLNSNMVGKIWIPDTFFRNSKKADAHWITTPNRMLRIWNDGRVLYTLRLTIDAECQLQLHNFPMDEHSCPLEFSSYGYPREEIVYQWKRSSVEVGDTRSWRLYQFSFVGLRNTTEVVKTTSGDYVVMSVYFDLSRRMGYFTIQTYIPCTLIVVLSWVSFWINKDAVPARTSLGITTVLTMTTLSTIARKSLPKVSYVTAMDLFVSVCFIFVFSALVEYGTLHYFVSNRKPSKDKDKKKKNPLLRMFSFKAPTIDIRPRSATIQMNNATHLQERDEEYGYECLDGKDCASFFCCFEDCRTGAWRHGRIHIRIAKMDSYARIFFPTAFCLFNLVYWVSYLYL

For the compound `CCn1cc2c(n1)-c1cc(OC)ccc1-n1cnc(-c3nc(CN(C)C)no3)c1C2` [Compound 241], the Ki (in general, a measure of affinity in units of concentration, obtained from inhibition or displacement) is < 100 nM.

For `COc1ccc2c(c1)-c1nn(C)cc1Cc1c(-c3nc(CN4CCOCC4)co3)ncn1-2` [Compound 271], the Ki was < 100 nM.

Consider `CCn1cc2c(n1)-c1cc(Cl)ccc1-n1cnc(-c3noc(C(C)(C)OC)n3)c1C2` [Compound 196], for which the Ki was < 100 nM.

In the case of `Cn1cc2c(n1)-c1cc(Cl)ccc1-n1cnc(-c3noc(Cn4ccnc4)n3)c1C2` [Compound 373], the Ki was < 100 nM.

Regarding `Cn1cc2c(n1)-c1cc(Cl)ccc1-n1cnc(-c3noc(Cn4cccn4)n3)c1C2` [Compound 372], the Ki was < 100 nM.

As for `COc1ccc2c(c1)-c1nn(Cc3ccccc3F)cc1Cc1c(-c3cnn(Cc4ccccc4)c3)ncn1-2` [Compound 77], the Ki was < 100 nM.

For the compound `COc1ccc2c(c1)-c1oncc1Cc1c(C3=N[C@H](c4ccccc4)CO3)ncn1-2` [Compound 49], under setting [1], the inhibition constant (Ki) was > 1000 nM.

On to `FC(F)(F)c1noc(-c2ncn3c2Cc2cn(CC4CCCO4)nc2-c2cc(Cl)ccc2-3)n1` (centres unmarked) [Compound 227], for which the Ki is < 100 nM.

On to `COc1cccc(Cn2cc(-c3ncn4c3Cc3cn(C)nc3-c3cc(Cl)ccc3-4)cn2)n1` [Compound 336], for which the Ki is < 100 nM.

`COc1ccc2c(c1)-c1c(cnn1C)Cc1c(-c3nc(CN4CCOCC4)no3)ncn1-2` [Compound 329] showed a Ki under setting [1] of 100 to 1000 nM.

As for `COc1ccc2c(c1)-c1[nH]ncc1Cc1c(-c3ccnn3C)ncn1-2` [Compound 78], the Ki under setting [1] is > 1000 nM.

For the compound `COc1ccc2c(c1)-c1[nH]ncc1Cc1c(C3=CCCC3)ncn1-2` [Compound 74], the Ki under setting [1] fell in the range of 100 to 1000 nM.

Take `COc1ccc2c(c1)-c1nn(C)cc1Cc1c(-c3noc(C(C)(C)O)n3)ncn1-2` [Compound 388]: the Ki is < 100 nM.

On to `COCCOCc1coc(-c2ncn3c2Cc2cn(C)nc2-c2cc(Cl)ccc2-3)n1` [Compound 278], for which the Ki is < 100 nM.

`COc1ccc2c(c1)-c1nn(C)cc1Cc1c(-c3nnc(C4CCOC4)o3)ncn1-2` (centres unmarked) [Compound 291] yielded a Ki of 100 to 1000 nM.

Turning to `Clc1ccc2c(c1)-c1nn(CC3CCCO3)cc1Cc1c(-c3cnn(CC4CCOCC4)c3)ncn1-2` (centres unmarked) [Compound 319], the Ki was < 100 nM.

In the case of `COc1ccc2c(c1)-c1nn(C)cc1Cc1c(-c3noc(C4CCOCC4)n3)ncn1-2` [Compound 324], under setting [1], the Ki is < 100 nM.

In the case of `COc1ccc2c(c1)-c1[nH]ncc1Cc1c(-c3cnn(Cc4ccccc4)c3)ncn1-2` [Compound 72], the Ki was < 100 nM.

In the case of `CCOC(=O)c1cnc2n1Cc1nncn1-c1cc(Cl)ccc1-2` [Compound 56], the Ki was < 100 nM.

In the case of `Clc1ccc2c(c1)-c1[nH]ncc1Cc1c(-c3cnoc3)ncn1-2` [Compound 61], the Ki was 100 to 1000 nM.

Regarding `CC(C)c1noc(-c2ncn3c2Cc2cnoc2-c2cc(Cl)ccc2-3)n1` [Compound 59], the Ki under setting [1] was > 1000 nM.

For the compound `COCc1noc(-c2ncn3c2Cc2cn(C)nc2-c2cc(Cl)ccc2-3)n1` [Compound 235], the Ki is < 100 nM.

Consider `CC1(c2nc(-c3ncn4c3Cc3cn(CC5CCCO5)nc3-c3cc(Cl)ccc3-4)no2)CCOCC1` (centres unmarked) [Compound 365], for which the Ki was < 100 nM.

With `COc1ccc2c(c1)-c1oncc1Cc1c(C3=N[C@@H](c4ccc(C(F)(F)F)cc4)CO3)ncn1-2` [Compound 50], the Ki under setting [1] is > 1000 nM.

With `COc1ccc(Cn2ncc3c2-c2cc(OC)ccc2-n2cnc(C#Cc4ccnn4C)c2C3)cc1` [Compound 37], the Ki fell in the range of 100 to 1000 nM.

Turning to `COc1ccc2c(c1)-c1nn(C)cc1Cc1c(-c3noc(Cn4cccn4)n3)ncn1-2` [Compound 361], the Ki was < 100 nM.

For the compound `CCn1cc2c(n1)-c1cc(Cl)ccc1-n1cnc(-c3noc(CN4CCCC4)n3)c1C2` [Compound 350], the Ki was < 100 nM.

Turning to `COc1ccc2c(c1)-c1c(cnn1C)Cc1c(-c3noc(C4(OC)CC4)n3)ncn1-2` [Compound 204], the Ki was < 100 nM.

For `COc1ccc2c(c1)-c1nn(C)cc1Cc1c(-c3nc(C(C)(C)OC)no3)ncn1-2` [Compound 335], the Ki was < 100 nM.

Regarding `CCC(C)(OC)c1nc(-c2ncn3c2Cc2cn(C)nc2-c2cc(OC)ccc2-3)no1` (centres unmarked) [Compound 353], under setting [1], the Ki was < 100 nM.

`Cc1noc(-c2ncn3c2Cc2cnn(Cc4ccccc4)c2-c2cc(Cl)ccc2-3)n1` [Compound 1]: the inhibition constant Ki is < 100 nM.

`CC(C)c1noc(-c2ncn3c2Cc2cnn(Cc4ccccc4)c2-c2cc(Cl)ccc2-3)n1` [Compound 2] came in with a Ki of 100 to 1000 nM.

Consider `COc1ccc2c(c1)-c1nn(C)cc1Cc1c(-c3nc(CN4CCCC4)co3)ncn1-2` [Compound 270], for which the Ki fell in the range of 100 to 1000 nM.

With `COc1ccc2c(c1)-c1nn(Cc3ccccc3)cc1Cc1c(-c3nc(C)no3)ncn1-2` [Compound 16], the Ki is < 100 nM.

Consider `CN1C(=O)Cn2c(C3=N[C@H](c4ccccc4)CO3)cnc2-c2ccc(Cl)cc21` [Compound 29], for which, under setting [1], the Ki is > 1000 nM.

As for `Clc1ccc2c(c1)-c1[nH]ncc1Cc1c(-c3nc(C4CCC4)no3)ncn1-2` [Compound 107], the Ki was < 100 nM.

With `Cn1cc2c(n1)-c1cc(Cl)ccc1-n1cnc(-c3noc(CCN4CCCC4=O)n3)c1C2` [Compound 383], the Ki under setting [1] was < 100 nM.

`COc1ccc2c(c1)-c1[nH]ncc1Cc1c(-c3cnco3)ncn1-2` [Compound 95]: the Ki was < 100 nM.

Regarding `COc1ccc2c(c1)-c1nn(C)cc1Cc1c(-c3nc(CN(C(C)=O)C(C)C)co3)ncn1-2` [Compound 381], the Ki under setting [1] was < 100 nM.

As for `COc1ccc2c(c1)-c1[nH]ncc1Cc1c(-c3cn(C)cn3)ncn1-2` [Compound 80], the Ki under setting [1] is > 1000 nM.

Consider `COCc1noc(-c2ncn3c2Cc2cn(CC4CCOC4)nc2-c2cc(OC)ccc2-3)n1` (centres unmarked) [Compound 299], for which the Ki under setting [1] was < 100 nM.

Consider `COCC(COC)OCc1coc(-c2ncn3c2Cc2cn(C)nc2-c2cc(Cl)ccc2-3)n1` [Compound 332], for which the Ki is < 100 nM.

With `COc1ccc2c(c1)-c1oncc1Cc1c(-c3nc(C)no3)ncn1-2` [Compound 42], under setting [1], the Ki is > 1000 nM.

In turn, `Clc1ccc2c(c1)-c1c(cnn1Cc1ccccc1)Cc1c(C3=N[C@H](c4ccccc4)CO3)ncn1-2` [Compound 5] gave a Ki of 100 to 1000 nM.

For `C[C@H]1COC(c2ncn3c2Cc2cnn(Cc4ccccc4)c2-c2cc(Cl)ccc2-3)=N1` [Compound 13], the Ki under setting [1] is > 1000 nM.

In the case of `COc1ccc(Cn2ncc3c2-c2cc(OC)ccc2-n2cnc(C#Cc4ccc(OC)nc4)c2C3)cc1` [Compound 36], the Ki fell in the range of 100 to 1000 nM.

On to `COCc1noc(-c2ncn3c2Cc2cn(CC4CCOC4)nc2-c2cc(Cl)ccc2-3)n1` (centres unmarked) [Compound 351], for which the Ki was < 100 nM.

In the case of `COc1ccc2c(c1)-c1nn(CC3CCOC3)cc1Cc1c(-c3nc(C(F)(F)F)no3)ncn1-2` (centres unmarked) [Compound 265], the Ki was < 100 nM.

Take `COc1ccc2c(c1)-c1nn(C)cc1Cc1c(-c3noc(COC(F)(F)F)n3)ncn1-2` [Compound 359]: the Ki is < 100 nM.

For the compound `CC(C)(C)C#Cc1ncn2c1Cc1cn(Cc3ccccc3)nc1-c1cc(Cl)ccc1-2` [Compound 92], the Ki is < 100 nM.

On to `COc1ccc2c(c1)-c1[nH]ncc1Cc1c(C#Cc3ccc(OC)nc3)ncn1-2` [Compound 38], for which the Ki is < 100 nM.

For `CCn1cc2c(n1)-c1cc(OC)ccc1-n1cnc(-c3noc(C4(OC)CC4)n3)c1C2` [Compound 340], the Ki under setting [1] is < 100 nM.

`COc1ccc2c(c1)-c1nn(C)cc1Cc1c(-c3nc(C4CCOC4)co3)ncn1-2` (centres unmarked) [Compound 262]: the Ki under setting [1] is > 1000 nM.

Regarding `CCOC(C)(C)c1nc(-c2ncn3c2Cc2cn(C)nc2-c2cc(OC)ccc2-3)no1` [Compound 341], the Ki was < 100 nM.

Take `COc1ccc2c(c1)-c1oncc1Cc1c(-c3nc(C(C)C)no3)ncn1-2` [Compound 41]: the Ki under setting [1] is > 1000 nM.

As for `Cn1cc2c(n1)-c1cc(Cl)ccc1-n1cnc(-c3nc(CN4CCCC4=O)co3)c1C2` [Compound 364], the Ki was < 100 nM.

For the compound `COCCc1nc(-c2ncn3c2Cc2cn(C)nc2-c2cc(Cl)ccc2-3)no1` [Compound 387], the Ki was < 100 nM.

For the compound `Cc1noc(-c2ncn3c2Cc2cnoc2-c2cc(Cl)ccc2-3)n1` [Compound 69], the Ki under setting [1] is > 1000 nM.

With `COc1ccc2c(c1)-c1c(cnn1C)Cc1c(-c3nc(C(C)C)no3)ncn1-2` [Compound 47], the Ki is 100 to 1000 nM.

For `COc1ccc2c(c1)-c1nn(C)cc1Cc1c(-c3noc(C4(OC)CCCC4)n3)ncn1-2` [Compound 355], the Ki is < 100 nM.

As to `C#Cc1ncn2c1Cc1cnoc1-c1cc(OC)ccc1-2` [Compound 51], under setting [1], the Ki was > 1000 nM.

Consider `CC(=O)N(C)Cc1noc(-c2ncn3c2Cc2cn(C)nc2-c2cc(Cl)ccc2-3)n1` [Compound 386], for which the inhibition constant Ki under setting [1] is < 100 nM.

The record behind these values is patent publication US20240132513A1, “BENZAZEPINE DERIVATIVES, COMPOSITIONS, AND METHODS FOR TREATING COGNITIVE IMPAIRMENT” (AGENEBIO, INC., priority 2022, published 2024).
